24 molecules from patent US10703784B2, “Antigens and epitopes derived from Mycobacterium tuberculosis” (priority 2011, dated 2020) can be followed below.

For assay [1], the system named is PBMCs from LTBI donors (IFN-γ production). Type of assay: cell-based, human. The conditions noted are these: for Resp. freq.: fraction of 28 LTBI donors responding to epitopes of the antigen; for Resp. freq. / Total SFC: ex vivo IFN-γ ELISPOT; for Total SFC: total spot-forming cells, LTBI donors.
For assay [2], the system named is PBMCs depleted of CD4+ or CD8+ T cells. Format: cell-based, human.
The mark [3] stands for this setting: individual MTB epitope peptide, one value per responding LTBI donor.
The mark [4] stands for this setting: phenotype of the responding T cells per donor, n.d. = assay not done.

“And” between values parts separate entries of the source, which are not always exact repeats. Equal values may be shown once. Read-outs that look alike come from different tables or passages of the source.

For FFGQNTAAIAATEAQ, in assay [1] (setting [3]), the SFC is 193.3 and 165.0. For the same molecule, the T cell phenotype result in assay [2] (setting [4]) is listed as “CD4”.
GTVVLTATFALGAAL: in assay [1] (setting [3]), the SFC was 33.3 and 128.3 and 71.7 and 30.0. The T cell phenotype result in assay [2] (setting [4]) was “CD4 (2×) and undetectable (2×)”.
DPMVQIPRLVANNTR came in with an SFC in assay [1] (setting [3]) of 60.0. In addition, the T cell phenotype entry in assay [2] (setting [4]) is “undetectable”.
As for LGGLWTAVSPHLSPL, the SFC in assay [1] (setting [3]) was 38.3 and 25.0. In addition, the T cell phenotype entry in assay [2] (setting [4]) was “CD4”.
As to DYVRMWVQAATVMSA, in assay [1] (setting [3]), the SFC is 343.3 and 38.3 and 31.7 and 81.7 and 28.3. Besides, the T cell phenotype entry in assay [2] (setting [4]) was “CD4 (3×) and CD4/CD8 and undetectable”.
Turning to ELFVAAYVPYVAWLV, the SFC in assay [1] (setting [3]) is 25.0 and 20.0 and 30.0 and 21.7 and 28.3. Besides, the T cell phenotype entry in assay [2] (setting [4]) was “undetectable”.
FVQALTTAAASYASV: in assay [1] (setting [3]), the SFC was 26.7 and 23.3. Moreover, in assay [2] (setting [4]), the T cell phenotype entry is “undetectable”.
In the case of PSPSMGRDIKVQFQS, the SFC in assay [1] (setting [3]) is 45.0 and 46.7. Also, the T cell phenotype result in assay [2] (setting [4]) is “undetectable”.
Consider ALSRVHSMFLGTGGS, for which the SFC in assay [1] (setting [3]) is 71.7 and 43.3. Further, the T cell phenotype entry in assay [2] (setting [4]) was “CD4”.
In assay [1] (setting [3]), LAWLVQASANSAAMA yielded an SFC of 25.0. Also, the T cell phenotype result in assay [2] (setting [4]) is on record as “undetectable”.
In the case of AALPLLFFALAGQRI, the SFC in assay [1] (setting [3]) was 81.7 and 36.7 and 33.3 and 143.3 and 45.0. Moreover, the T cell phenotype result in assay [2] (setting [4]) was “CD4 (3×) and undetectable (2×)”.
For ILPIAEMSVVAMEFG, the SFC in assay [1] (setting [3]) was 111.7 and 26.7 and 33.3. In addition, the T cell phenotype result in assay [2] (setting [4]) is “CD4 and undetectable (2×)”.
As to LSPISNMVSMANNHM, the SFC in assay [1] (setting [3]) was 70.0 and 115.0 and 43.3 and 28.3. Besides, the T cell phenotype result in assay [2] (setting [4]) was “CD4 and undetectable (3×)”.
As for AAIHEMFVNTLQMSS, the SFC in assay [1] (setting [3]) was 25.0 and 165.0. Further, the T cell phenotype result in assay [2] (setting [4]) is on record as “CD8”.
Turning to AQLSQLISLLPSTLQ, in assay [1] (setting [3]), the SFC was 50.0 and 51.7 and 23.3. In addition, the T cell phenotype entry in assay [2] (setting [4]) is on record as “undetectable”.
Turning to AGCQTYKWETFLTSE, in assay [1], the SFC was 60.0 and 55.8 and 36.7 and 51.7. Further, the T cell phenotype result in assay [2] is “CD4 and undetectable”.
Consider GAMVATNFFGINTIP, for which, in assay [2], the T cell phenotype entry is “CD4 and undetectable”.
Still for that read-out and setting: next, AVLVATNFFGINTIP: “CD4 and undetectable”.

B1: Rv3024c: MTB protein, novel CD4 T cell antigen; Information pathways, Island 2 (protein, listed as Mycobacterium tuberculosis)
chain: MKVLAAMSGGVDSSVAAARMVDAGHEVVGVHMALSTAPGTLRTGSRGCCSKEDAADARRVADVLGIPFYVWDFAEKFKEDVINDFVSSYARGETPNPCVRCNQQIKFAALSARAVALGFDTVATGHYARLSGGRLRRAVDRDKDQSYVLAVLTAQQLRHAAFPIGDTPKRQIRAEAARRGLAVANKPDSHDICFIPSGNTKAFLGERIGVRRGVVVDADGVVLASHDGVHGFTIGQRRGLGIAGPGPNGRPRYVTAIDADTATVHVGDVTDLDVQTLTGRAPVFTAGAAPSGPVDCVVQVRAHGETVSAVAELIGDALFVQLHAPLRGVARGQTLVLYRPDPAGDEVLGSATIAGASGLSTGGNPGA
In the case of B1, in assay [1], the Resp. freq. is 32% and the “Total SFC” value was found to be 1630 SFC.

B2: Rv2490c: MTB protein, novel CD4 T cell antigen; PE/PPE (protein, listed as Mycobacterium tuberculosis)
chain: MQSMSFDPAVADIGSQVVNNAFQGLQAGAVAWVSLSSLLPAGAEEVSAWAVTAFTTAATGLLALNQAAQEELRKAGEVFTAIARMYSDADVRAAACLLEAIPRPGQTLARE
In the case of B2, in assay [1], the Resp. freq. worked out at 11% and the “Total SFC” value turned out to be 64 SFC.

B3: Rv1441c: MTB protein, novel CD4 T cell antigen; PE/PPE (protein, listed as Mycobacterium tuberculosis)
chain: MSNVMVVPGMLSAAAADVASIGAALSAANGAAAPTTAGVLAAGADEVSAAIASLFSGYARDYQALSAQMARFHQQFVQALTASVGSYAAAEAANASPLQALEQQVLAAINAPTQTLLGRPLIGNGADGLPGQNGGAGGLLWGNGGNGGAGDAAHPNGGNGGDAGMFGNGGAGGAGYSPAAGTGAAGGAGGAGGAGGWLSGNGGAGGNGGTGASGADGGGGLPPVPASPGGNGGGGDAGGAAGMFGTGGAGGTGGDGGAGGAGDSPNSGANGARGGDGGNGAAGGAGGRLFGNGGAGGNGGTAGQGGDGGTALGAGGIGGDGGTGGAGGTGGTAGIGGSSAGAGGAGGDGGAGGTGGGSSMIGGKGGTGGNGGVGGTGGASALTIGNGSSAGAGGAGGAGGTGGTGGYIESLDGKGQAGNGGNGGNGAAGGAGGGGTGAGGNGGAGGNGGDGGPSQGGGNPGFGGDGGTGGPGGVGVPDGIGGANGAQGKHG
In the case of B3, in assay [1], the Resp. freq. is recorded as 11% and the “Total SFC” value came out at 86 SFC.

B4: Rv1366: MTB protein, novel CD4 T cell antigen; Conserved hypotheticals (protein, listed as Mycobacterium tuberculosis)
chain: MVVALVGSAIVDLHSRPPWSNNAVRRLGVALRDGVDPPVDCPSYAEVMLWHADLAAEVQDRIEGRSWSASELLVTSRAKSQDTLLAKLRRRPYLQLNTIQDIAGVRIDADLLLGEQTRLAREIADHFGADQPAIHDLRDHPHAGYRAVHVWLRLPAGRVEIQIRTILQSLWANFYELLADAYGRGIRYDERPEQLAAGVVPAQLQELVGVMQDASADLAMHEAEWQHCAEIEYPGQRAMALGEASKNKATVLATTKFRLERAINEAESAGGGG
Take B4: in assay [1], the Resp. freq. came out at 11% and the “Total SFC” value was 308 SFC.

B5: Rv1317c: MTB protein, novel CD4 T cell antigen; Information pathways (protein, listed as Mycobacterium tuberculosis)
chain: MHDDFERCYRAIQSKDARFDGWFVVAVLTTGVYCRPSCPVRPPFARNVRFLPTAAAAQGEGFRACKRCRPDASPGSPEWNVRSDVVARAMRLIADGTVDRDGVSGLAAQLGYTIRQLERLLQAVVGAGPLALARAQRMQTARVLIETTNLPFGDVAFAAGFSSIRQFNDTVRLACDGTPTALRARAAARFESATASAGTVSLRLPVRAPFAFEGVFGHLAATAVPGCEEVRDGAYRRTLRLPWGNGIVSLTPAPDHVRCLLVLDDFRDLMTATARCRRLLDLDADPEAIVEALGADPDLRAVVGKAPGQRIPRTVDEAEFAVRAVLAQQVSTKAASTHAGRLVAAYGRPVHDRHGALTHTFPSIEQLAEIDPGHLAVPKARQRTINALVASLADKSLVLDAGCDWQRARGQLLALPGVGPWTAEVIAMRGLGDPDAFPASDLGLRLAAKKLGLPAQRRALTVHSARWRPWRSYATQHLWTTLEHPVNQWPPQEKIA
On to B5, for which, in assay [1], the Resp. freq. worked out at 11% and the “Total SFC” value stood at 97 SFC.

B6: Rv0290: MTB protein, novel CD4 T cell antigen; Cell wall and cell processes, Island 1, Esx-3 (protein, listed as Mycobacterium tuberculosis)
chain: MSGTVMQIVRVAILADSRLTEMALPAELPLREILPAVQRLVVPSAQNGDGGQADSGAAVQLSLAPVGGQPFSLDASLDTVGVVDGDLLVLQPVPAGPAAPGIVEDIADAAMIFSTSRLKPWGIAHIQRGALAAVIAVALLATGLTVTYRVATGVLAGLLAVAGIAVASALAGLLITIRSPRSGIALSIAALVPIGAALALAVPGKFGPAQVLLGAAGVAAWSLIALMIPSAERERVVAFFTAAAVVGASVALAAGAQLLWQLPLLSIGCGLIVAALLVTIQAAQLSALWARFPLPVIPAPGDPTPSAPPLRLLEDLPRRVRVSDAHQSGFIAAAVLLSVLGSVAIAVRPEALSVVGWYLVAATAAAATLRARVWDSAACKAWLLAQPYLVAGVLLVFYTATGRYVAAFGAVLVLAVLMLAWVVVALNPGIASPESYSLPLRRLLGLVAAGLDVSLIPVMAYLVGLFAWVLNR
Take B6: in assay [1], the Resp. freq. is on record as 29% and the “Total SFC” value is 1552 SFC.
